Measured values taken from publication PMC11858854, “In Vitro and In Vivo Assessment of Pharmacokinetic Profile of Peramivir in the Context of Inhalation Therapy” (Pharmaceuticals, 2025).

How the values were obtained:
[1] = Pharmacokinetics study in rats (i.v. and tracheal nebulization, plasma); format: in vivo, rat; conditions: for AUC(0–t) / AUC(0–t)/D / AUC(0–∞) / Cmax or C0 / Cmax/D / MRT(0–t) / MRT(0–∞) / T1/2 / Tmax / Cl / Vss / Vz: rat plasma, Mean ± SD, n = 6
Experimental: Pharmacokinetic studies were performed on rats to examine the effects of two distinct routes of administration: intravenous (i.v.) and tracheal nebulization (i.t.). The two administration routes were established to provide different doses, with six SD rats randomly assigned and weighed for each route.
The intravenous group consisted of rats that were randomly allocated into two subgroups, receiving dosages of 3 mg/kg and 6 mg/kg, respectively. The i.t. group consisted of rats that were randomly allocated into four groups receiving doses of 0.3 mg/kg, 1 mg/kg, 3 mg/kg, and 6 mg/kg. Prior to and at 0.033, 0.083, 0.25, 0.5, 1, 2, 4, 6, 8, 12, and 24 h post-administration, about 200 μL of blood was obtained via jugular vein catheterization and transferred to an EP tube containing heparin. Following centrifugation for 10 min at 5000× g, the plasma was isolated and preserved in a refrigerator at −40 °C until analysis.
Noncompartmental PK parameter estimates were determined from individual concentration-time data, using Phoenix WinNonlin, version 8.1 (Certara USA, Princeton, NJ, USA). And the linear relationship between AUC(0–t) and the corresponding dose was analyzed. t tests were performed on pharmacokinetic parameters under different dosing regimens to analyse the differences in drug exposure in rats.

[2] = test system: NCI-H441/dTHP co-culture model; assay: Bidirectional transport, NCI-H441/dTHP co-culture model; format: in vitro ADME, human; conditions: NCI-H441/dTHP, 2 μM
Experimental: THP-1 cells were cultured in RPMI-1640 medium (Gibco, Thermo, CA, USA) supplemented with 10% FBS, PS (100 U/mL), and β-Mer (0.05 mM) at 37 °C in a humidified 5% CO2 incubator, and the medium was changed every other day. THP-1 cells were seeded at 4 × 10^5 cells/mL in six-well plates and induced for 48 h by adding medium containing a final concentration of 100 ng/mL PMA.
Then, the differentiated cells were seeded at 5 × 10^4 cells/well on the surface of NCI-H441 cells 10 days after air–liquid culture and continued to co-culture for 24 h.
We removed the liquid from the apical and basolateral of the Transwell, rinsed the cells three times with a buffer containing HBSS, 10 mM Hepes, and 0.1% BSA (Buffer A), and then added Buffer A (100 µL for the apical side and 600 µL for the basolateral side) for pre-incubation for 30 min at 37 °C. For the transport studies in the apical to basolateral (A-B) direction, 100 μL of pre-warmed test solution (Buffer A containing 2 µM positive control drugs or peramivir) was added to the apical side, while 600 μL of pre-warmed assay buffer, a buffer containing HBSS, 10 mM Hepes, and 1% BSA (Buffer B), was added to the basolateral compartment.

human MDR1 (P-gp) = human MDR1 (P-gp) (Homo sapiens, UniProt P08183); assay: Permeability assay, LLC-PK1-MDR1 cells overexpressing P-gp
Experimental: When the cell transport system was mature in culture, experiments were performed. […] When assessing permeability in basolateral to apical (B-A) direction, 100 μL of pre-warmed Buffer B and 600 μL of pre-warmed test solutions were added to the apical and basolateral compartments, respectively. The Transwells® were placed in an incubator at 37 °C and 5% CO2 for a duration of 2 h. At the end of the incubation period, the samples in the apical and basolateral sides were collected separately and were briefly kept at a temperature of −40 °C for LC-MS/MS analysis. […] The cells were transferred to Transwell® plates (Corning, NY, USA) at a density of 2 × 10^4 cells/well with 200 μL of cell suspension per well, while 850 μL of complete medium was added to the basolateral chamber. […] The samples were collected separately and were briefly kept at a temperature of −40 °C for LC-MS/MS analysis.

[3] = LLC-PK1-MDR1, 2 μM, Mean ± SD, n = 3

Sequence of human MDR1 (P-gp) (P08183 whole entry): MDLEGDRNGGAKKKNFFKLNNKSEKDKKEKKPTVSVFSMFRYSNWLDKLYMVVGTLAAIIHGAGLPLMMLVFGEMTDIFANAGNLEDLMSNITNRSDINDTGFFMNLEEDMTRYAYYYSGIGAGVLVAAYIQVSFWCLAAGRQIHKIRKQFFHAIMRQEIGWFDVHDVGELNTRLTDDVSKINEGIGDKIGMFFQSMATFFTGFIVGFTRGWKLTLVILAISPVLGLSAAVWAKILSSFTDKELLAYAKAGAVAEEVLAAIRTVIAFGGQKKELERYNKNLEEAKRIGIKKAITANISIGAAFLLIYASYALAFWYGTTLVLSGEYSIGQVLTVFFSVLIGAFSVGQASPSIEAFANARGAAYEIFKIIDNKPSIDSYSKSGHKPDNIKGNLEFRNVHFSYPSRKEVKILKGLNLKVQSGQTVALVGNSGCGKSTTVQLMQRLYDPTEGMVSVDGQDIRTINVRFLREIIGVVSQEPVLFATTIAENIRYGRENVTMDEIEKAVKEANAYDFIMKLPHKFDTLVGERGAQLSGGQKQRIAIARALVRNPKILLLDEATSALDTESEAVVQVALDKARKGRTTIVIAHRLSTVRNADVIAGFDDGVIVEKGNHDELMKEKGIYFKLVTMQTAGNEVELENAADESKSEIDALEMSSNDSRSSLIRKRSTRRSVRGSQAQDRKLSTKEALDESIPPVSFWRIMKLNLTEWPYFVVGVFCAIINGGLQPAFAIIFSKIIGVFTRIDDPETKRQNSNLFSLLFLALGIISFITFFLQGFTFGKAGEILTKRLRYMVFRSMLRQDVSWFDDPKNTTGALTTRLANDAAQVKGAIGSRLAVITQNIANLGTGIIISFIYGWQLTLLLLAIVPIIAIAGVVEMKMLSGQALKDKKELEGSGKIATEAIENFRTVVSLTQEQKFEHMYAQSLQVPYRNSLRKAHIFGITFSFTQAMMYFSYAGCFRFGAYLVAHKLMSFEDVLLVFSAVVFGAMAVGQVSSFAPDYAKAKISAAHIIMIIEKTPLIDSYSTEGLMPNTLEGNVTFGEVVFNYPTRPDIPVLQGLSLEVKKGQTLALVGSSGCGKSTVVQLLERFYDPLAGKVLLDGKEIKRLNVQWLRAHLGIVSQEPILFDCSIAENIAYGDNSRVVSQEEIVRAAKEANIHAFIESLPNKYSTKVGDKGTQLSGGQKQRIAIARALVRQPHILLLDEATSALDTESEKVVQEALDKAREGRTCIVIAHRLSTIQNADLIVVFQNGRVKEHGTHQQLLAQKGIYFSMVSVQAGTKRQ

## CCC(CC)[C@H](NC(C)=O)[C@@H]1[C@H](O)[C@@H](C(=O)O)C[C@H]1N=C(N)N [Peramivir]
[1]; i.t. 0.3 mg/kg
  AUC(0–t): 405.17 ± 56.59 ng·h/mL
  AUC(0–t)/D: 1350.57 ± 188.64 kg·ng·h/mL/mg
  AUC(0–∞): 407.71 ± 56.59 ng·h/mL
  Cmax or C0: 204.67 ± 80.82 ng/mL
  Cmax/D: 682.22 ± 269.38 kg·ng/mL/mg
  MRT(0–t): 1.62 ± 0.31 h
  MRT(0–∞): 1.67 ± 0.33 h
  T1/2: 1.07 ± 0.22 h
  Tmax: 0.37 ± 0.38 h
[1]; i.t. 1 mg/kg
  AUC(0–t): 1279.25 ± 93.59 ng·h/mL
  AUC(0–t)/D: 1279.25 ± 93.59 kg·ng·h/mL/mg
  AUC(0–∞): 1291.03 ± 92.89 ng·h/mL
  Cmax or C0: 544.17 ± 215.23 ng/mL
  Cmax/D: 544.17 ± 215.23 kg·ng/mL/mg
  MRT(0–t): 2.08 ± 0.69 h
  MRT(0–∞): 2.32 ± 1.07 h
  T1/2: 4.10 ± 1.69 h
  Tmax: 0.67 ± 0.40 h
[1]; i.t. 3 mg/kg
  AUC(0–t): 4364.35 ± 583.02 ng·h/mL
  AUC(0–t)/D: 1454.78 ± 194.34 kg·ng·h/mL/mg
  AUC(0–∞): 4673.22 ± 567.78 ng·h/mL
  Cmax or C0: 2303.33 ± 1523.96 ng/mL
  Cmax/D: 767.78 ± 507.99 kg·ng/mL/mg
  MRT(0–t): 3.15 ± 0.66 h
  MRT(0–∞): 8.26 ± 4.04 h
  T1/2: 27.20 ± 9.67 h
  Tmax: 0.29 ± 0.36 h
[1]; i.t. 6 mg/kg
  AUC(0–t): 8479.33 ± 883.87 ng·h/mL
  AUC(0–t)/D: 1413.22 ± 147.31 kg·ng·h/mL/mg
  AUC(0–∞): 8852.22 ± 897.97 ng·h/mL
  Cmax or C0: 3866.00 ± 2454.21 ng/mL
  Cmax/D: 644.33 ± 409.04 kg·ng/mL/mg
  MRT(0–t): 3.41 ± 1.08 h
  MRT(0–∞): 5.70 ± 1.84 h
  T1/2: 17.73 ± 2.85 h
  Tmax: 0.29 ± 0.39 h
[1]; i.v. 3 mg/kg
  AUC(0–t): 3765.02 ± 247.43 ng·h/mL
  AUC(0–t)/D: 1255.00 ± 82.48 kg·ng·h/mL/mg
  AUC(0–∞): 3773.97 ± 245.49 ng·h/mL
  Cl: 13.296 ± 0.8863 mL/min/kg
  Cmax or C0: 12,705.55 ± 1264.79 ng/mL
  MRT(0–t): 0.59 ± 0.06 h
  MRT(0–∞): 0.62 ± 0.06 h
  T1/2: 2.11 ± 1.25 h
  Vss: 0.49811 ± 0.0581 L/kg
  Vz: 2.46265 ± 1.56916 L/kg
[1]; i.v. 6 mg/kg
  AUC(0–t): 6048.04 ± 635.88 ng·h/mL
  AUC(0–t)/D: 1008.01 ± 105.98 kg·ng·h/mL/mg
  AUC(0–∞): 6060.92 ± 637.85 ng·h/mL
  Cl: 16.654 ± 1.7818 mL/min/kg
  Cmax or C0: 22,731.79 ± 5543.47 ng/mL
  MRT(0–t): 0.47 ± 0.06 h
  MRT(0–∞): 0.51 ± 0.07 h
  T1/2: 3.07 ± 0.61 h
  Vss: 0.47267 ± 0.06358 L/kg
  Vz: 4.43299 ± 1.0131 L/kg
[1]; rat, equivalent doses
  increase of mean residence time (MRT), inhaled vs intravenous: nearly tenfold
[1]; rat, following inhalation
  time of peak plasma concentration: approximately 30 min
[1]; rat, inhalation vs intravenous
  bioavailability: exceeding 100%
[1]; rat, intratracheal, dose range 0.3 mg/kg to 6 mg/kg
  dose linearity of AUC and Cmax: linear pharmacokinetics
[2]
  ER: 0.75
[2]; Mean ± SD, n = 3
  Papp A-B: 1.19 ± 0.16 ×10−6 cm/s
  Papp B-A: 0.9 ± 0.17 ×10−6 cm/s
Human MDR1 (P-gp); [3]
  Papp A-B: BLQ
  Papp B-A: 0.23 ± 0.03 ×10−6 cm/s
Human MDR1 (P-gp); Papp(B→A) LLC-PK1-MDR1 vs LLC-PK1-MOCK
  P-gp transporter substrate status: not a substrate of the P-gp transporter
